# Reference: US12312330B2, “1-((S)-1-(3-chloro-5-fluoro-2-((4-(1h-pyrazol-1-yl)-2-methylquinolin-8-yloxy)methyl)phenyl)ethyl)-imidazolidine-2,4-dione derivatives and related compounds as bradykinin (BK) B2 receptor antagonist for treating skin diseases” (Pharvaris GmbH, priority 2019, dated 2025)
# Target: T1, human bradykinin B2 receptor (hB2R) (Homo sapiens, UniProt P30411)
# T1 sequence (P30411 1-391): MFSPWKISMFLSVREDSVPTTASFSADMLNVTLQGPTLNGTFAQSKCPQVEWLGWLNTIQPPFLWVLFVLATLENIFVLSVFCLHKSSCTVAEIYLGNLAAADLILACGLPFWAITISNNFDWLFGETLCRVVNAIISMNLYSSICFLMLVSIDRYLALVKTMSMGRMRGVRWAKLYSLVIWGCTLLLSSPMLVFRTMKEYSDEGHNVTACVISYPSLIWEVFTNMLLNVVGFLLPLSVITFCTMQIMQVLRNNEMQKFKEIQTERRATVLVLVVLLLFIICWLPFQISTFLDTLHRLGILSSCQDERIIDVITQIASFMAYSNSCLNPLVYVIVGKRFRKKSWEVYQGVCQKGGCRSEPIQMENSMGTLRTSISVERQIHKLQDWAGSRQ
# Assay: human bradykinin B2 receptor calcium mobilization (hB2R-CaM) assay
# Format: cell-based
# Conditions: antagonism of bradykinin (EC80) induced calcium mobilization, B2 Bradykinin Receptor Stable Cell Line HTS041C, 25 min pre-incubation; read-out: IC50-value towards human bradykinin B2 receptor (hB2R)
# Excerpt: The following cell-based human bradykinin B2 receptor calcium mobilization (hB2R-CaM) assay was used to determine the antagonistic activity of compounds selected from the example compounds Nos. 1 to 107 towards human bradykinin B2 receptor (hB2R). The assay is defined herein as a standard in vitro B2 receptor activity assay, which can be used to determine IC50 values of the compounds according to the present invention, e. g. the compounds shown in Examples 1-13.
# The antagonistic activity of compounds according to the present invention was investigated with the hB2R-CaM assay using the B2 Bradykinin Receptor Stable Cell Line HTS041C (Eurofins, St. Charles MO) and the FLIPR Calcium 6 Assay Kit (Molecular Devices, Wokingham, UK) according to the instructions of the providers. CaM assay measurements were performed with a Flexstation 3 System (Molecular Devices) which allows the precise addition of compounds (B2R antagonists) and bradykinin (B2R agonist) to the cells and adjacent continuous recording of the time-dependent CaM assay signals.
# HTS041C cells were cultured in high glucose DMEM cell culture medium (Lonza) supplemented with 10% heat-inactivated FBS (PAN Biotech), 10 mM HEPES, Penicillin/Streptomycin (200 U/mL, 200 μg/mL), lx non-essential amino acids (Lonza), and 250 μg/mL G418 (Invivogen) in cell incubator at 37° C. in a 5% CO2 atmosphere. One day before the CaM assay experiments cells were seeded in 200 μL DMEM cell culture medium with reduced FBS (5%) and without G418 on clear bottom black 96 well plates (ThermoFisher #165305). Cell starvation was carried out by incubation (37° C., 5% CO2) of 70.000 cells/well for 24 h to 28 h. Immediately prior calcium dye-loading the medium was carefully aspirated and cells were washed with Hank's balanced salt solution (HBSS, Gibco) containing Ca^2+, Mg^2+ and 20 mM HEPES, adjusted to pH 7.4 (HBSS+).
# For calcium dye-loading one FLIPR 6 assay aliquot was dissolved in 20 mL HBSS+. 150 μL of the dye loading solution was added to cell plate and incubated for 120 min at 37° C. and 5% CO2. After dye loading the cell plate was immediately transferred to the pre-warmed (37° C.) Flexstation 3 System for CaM assaying.
# Freshly prepared compound (B2 receptor antagonists) dilution series (8 pt, n=2) and bradykinin (B2 receptor agonist) solution in non-binding plates (Costar) were transferred to the Flexstation System (source plate) shortly before starting the experiment. Bradykinin was added in EC80 concentration determined in n>3 preliminary experiments with 8 pt concentration response curves (n=8)). CaM assay was executed by Flexstation 3 System starting with recording of calcium-sensitive dye fluorescence in bottom-read Flex modus with ex/em=485 nm/525 nm, cut off(em)=515 nm After 20 s, 50 μL of 4-fold concentrated compound dilutions were added to the cells resulting in a final DMSO (Sigma) concentration of 0.1% in the cell plate. CaM signals were monitored for 80 s after additions for detection of potential agonistic activities. Prior to bradykinin stimulus compound- and vehicle-treated cells were incubated for 25 min at 37° C. within the Flexstation System. Then 50 μL of a 5-fold concentrated bradykinin solution (HBSS+, 0.1% DMSO) was added to trigger CaM signals (Read out: Max-Min values) which were measured for 80 s post bradykinin stimulus.
# IC50 determinations were performed by 4 parameter logistic model curve fitting of the 8 pt (n=2) compound concentration response curves using XLFIT (IDBS) software.
row,Structure (SMILES),IC50
1,Cc1cc(-n2cc(F)cn2)c2cccc(OCc3c(Cl)cc(F)cc3[C@H](C)N3CCN(C)C(=O)C3=O)c2n1 [compound 87],≤ 10 nM
2,"CCN1C(=O)C(C)N([C@@H](C)c2cc(F)cc(Cl)c2COc2cccc3c(-n4cc(F)cn4)cc(C)nc23)C1=O (single isomer, unassigned) [Compound No. 2]",11 to 100 nM
3,Cc1cc(-n2cc(F)cn2)c2cccc(OCc3c(Cl)cc(F)cc3[C@H](C)N3CC(=O)N(C)[C@H](C)C3=O)c2n1 [compound 103],11 to 100 nM
4,"Cc1cc(-n2cc(F)cn2)c2cccc(OCc3c(Cl)cc(F)cc3[C@H](C)N3C[C@@H](C)N(C)C(=O)C3=O)c2n1 [Compound No. 11, (R)-1-((S)-1-(3-chloro-5-fluoro-2-((4-(4-fluoro-1H-pyrazol-1-yl)-2-methylquinolin-8-yloxy)methyl)phenyl)ethyl)-4,5-dimethylpiperazine-2,3-dione]",≤ 10 nM
5,Cc1cc(-n2cc(F)cn2)c2cccc(OCc3c(Cl)cc(F)cc3[C@H](C)N3CC(=O)N(C(C)C)C3=O)c2n1 [compound 14],11 to 100 nM
6,Cc1cc(-c2ncnn2C)c2cccc(OCc3c(Cl)cc(F)cc3[C@H](C)N3C[C@@H](O)CC3=O)c2n1 [compound 73],≤ 10 nM
7,"Cc1cc(-n2cc(F)cn2)c2cccc(OCc3c(Cl)cc(F)cc3[C@H](C)N3C(=O)COCC3C)c2n1 (single isomer, unassigned) [compound 32]",11 to 100 nM
8,Cc1cc(-c2ncnn2C)c2cccc(OCc3c(Cl)cc(F)cc3[C@H](C)N3C(=O)[C@H](C)NC(=O)[C@H]3C)c2n1 [compound 106],11 to 100 nM
9,Cc1cc(-c2ncnn2C)c2cccc(OCc3c(Cl)cc(F)cc3[C@H](C)N3CC(=O)NC(C)(C)C3=O)c2n1 [compound 101],11 to 100 nM
10,Cc1cc(-c2ncnn2C)c2cccc(OCc3c(Cl)cc(F)cc3[C@H](C)N3C[C@@H](C)NC(=O)C3=O)c2n1 [compound 98],≤ 10 nM
11,Cc1cc(-n2cc(F)cn2)c2cccc(OCc3c(Cl)cc(F)cc3[C@H](C)N3C[C@H](C)NC(=O)C3=O)c2n1 [compound 86],≤ 10 nM
12,"Cc1cc(-n2cc(F)cn2)c2cccc(OCc3c(Cl)cc(F)cc3[C@H](C)N3C(=O)N(C4CC4)C(=O)C3C)c2n1 (single isomer, unassigned) [compound 31]",101 to 500 nM
13,"Cc1cc(-c2ncnn2C)c2cccc(OCc3c(Cl)cc(F)cc3[C@H](C)N3CCN(C)C(C)(C)C3=O)c2n1 [Compound No. 10, (S)-1-(1-(3-chloro-5-fluoro-2-((2-methyl-4-(1-methyl-1H-1,2,4-triazol-5-yl)quinolin-8-yloxy)methyl)phenyl)ethyl)-3,3,4-trimethylpiperazin-2-one]",11 to 100 nM
14,Cc1cc(-n2cc(F)cn2)c2cccc(OCc3c(Cl)cc(F)cc3[C@H](C)N3CCN[C@H](C)C3=O)c2n1 [compound 77],11 to 100 nM
15,Cc1cc(-c2ncnn2C)c2cccc(OCc3c(Cl)cc(F)cc3[C@H](C)N3CCCC3=O)c2n1 [compound 27],≤ 10 nM
16,Cc1cc(-c2ncnn2C)c2cccc(OCc3c(Cl)cc(F)cc3[C@H](C)N3CC[C@@H](O)C3=O)c2n1 [compound 43],11 to 100 nM
17,"Cc1cc(-c2ncnn2C)c2cccc(OCc3c(Cl)cc(F)cc3[C@H](C)N3C(=O)COCC3C)c2n1 (single isomer, unassigned) [compound 70]",11 to 100 nM
18,Cc1cc(-c2ncnn2C)c2cccc(OCc3c(Cl)cc(F)cc3[C@H](C)N3CCC[C@H](O)C3=O)c2n1 [compound 85],101 to 500 nM
19,Cc1cc(-c2ncnn2C)c2cccc(OCc3c(Cl)cc(F)cc3[C@H](C)N3C[C@H](O)CC3=O)c2n1 [compound 96],11 to 100 nM
20,Cc1cc(-n2cc(F)cn2)c2cccc(OCc3c(Cl)cc(F)cc3[C@H](C)N3CCC[C@@H](O)C3=O)c2n1 [compound 84],11 to 100 nM

# Next, values leading:
row,IC50,Structure (SMILES)
1,≤ 10 nM,"Cc1cc(-c2ncnn2C)c2cccc(OCc3c(Cl)cc(F)cc3[C@H](C)N3CC[C@@H](F)C3=O)c2n1 [Compound No. 5, (R)-1-((S)-1-(3-chloro-5-fluoro-2-((2-methyl-4-(1-methyl-1H-1,2,4-triazol-5-yl)quinolin-8-yloxy)methyl)phenyl)ethyl)-3-fluoropyrrolidin-2-one]"
2,11 to 100 nM,Cc1cc(-c2ncnn2C)c2cccc(OCc3c(Cl)cc(F)cc3[C@H](C)N3CC(=O)N(C)[C@@H](C)C3=O)c2n1 [compound 74]
3,11 to 100 nM,"CCN1C(=O)C(C)N([C@@H](C)c2cc(F)cc(Cl)c2COc2cccc3c(-c4ncnn4C)cc(C)nc23)C1=O (single isomer, unassigned) [compound 54]"
4,11 to 100 nM,CC(=O)N1CCN([C@@H](C)c2cc(F)cc(Cl)c2COc2cccc3c(-n4cc(F)cn4)cc(C)nc23)C(=O)C1 [compound 78]
5,≤ 10 nM,Cc1cc(-n2cc(F)cn2)c2cccc(OCc3c(Cl)cc(F)cc3[C@H](C)N3CC(=O)N(CCO)C3=O)c2n1 [compound 15]
6,≤ 10 nM,Cc1cc(-c2ncnn2C)c2cccc(OCc3c(Cl)cc(F)cc3[C@H](C)N3CCCCC3=O)c2n1 [compound 26]
7,11 to 100 nM,"Cc1cc(-n2cc(F)cn2)c2cccc(OCc3c(Cl)cc(F)cc3[C@H](C)N3CCOC(C)C3=O)c2n1 (single isomer, unassigned) [compound 35]"
8,11 to 100 nM,Cc1cc(-n2cc(F)cn2)c2cccc(OCc3c(Cl)cc(F)cc3[C@H](C)N3CC(=O)N(CCN(C)C)C3=O)c2n1 [compound 24]
9,≤ 10 nM,Cc1cc(-n2cc(F)cn2)c2cccc(OCc3c(Cl)cc(F)cc3[C@H](C)N3CC(=O)N(C)CC3=O)c2n1 [compound 46]
10,≤ 10 nM,"Cc1cc(-c2ncnn2C)c2cccc(OCc3c(Cl)cc(F)cc3[C@H](C)N3C(=O)N(C4CC4)C(=O)C3C)c2n1 (single isomer, unassigned) [compound 55]"
11,11 to 100 nM,Cc1cc(-c2ncnn2C)c2cccc(OCc3c(Cl)cc(F)cc3[C@H](C)N3CC(=O)N[C@H](C)C3=O)c2n1 [compound 75]
12,11 to 100 nM,"Cc1cc(-n2cc(F)cn2)c2cccc(OCc3c(Cl)cc(F)cc3[C@H](C)N3CCN(C)CC3=O)c2n1 [Compound No. 9, (S)-1-(1-(3-chloro-5-fluoro-2-((4-(4-fluoro-1H-pyrazol-1-yl)-2-methylquinolin-8-yloxy)methyl)phenyl)ethyl)-4-methylpiperazin-2-one]"
13,11 to 100 nM,Cc1cc(-n2cc(F)cn2)c2cccc(OCc3c(Cl)cc(F)cc3[C@H](C)N3CCNC(C)(C)C3=O)c2n1 [compound 100]
14,≤ 10 nM,"Cc1cc(-n2cc(F)cn2)c2cccc(OCc3c(Cl)cc(F)cc3[C@H](C)N3CC(=O)N(C)[C@@H](C)C3=O)c2n1 [Compound No. 12, (S)-1-((S)-1-(3-chloro-5-fluoro-2-((4-(4-fluoro-1H-pyrazol-1-yl)-2-methylquinolin-8-yloxy)methyl)phenyl)ethyl)-3,4-dimethylpiperazine-2,5-dione]"
15,≤ 10 nM,Cc1cc(-n2cc(F)cn2)c2cccc(OCc3c(Cl)cc(F)cc3[C@H](C)N3C[C@@H](O)CC3=O)c2n1 [compound 72]
16,≤ 10 nM,"Cc1cc(-c2ncnn2C)c2cccc(OCc3c(Cl)cc(F)cc3[C@H](C)N3CCOC(C)C3=O)c2n1 (single isomer, unassigned) [compound 48]"
17,≤ 10 nM,Cc1cc(-c2ncnn2C)c2cccc(OCc3c(Cl)cc(F)cc3[C@H](C)N3CC(C)CC3=O)c2n1 (stereo partly shown) [compound 63]
